Test results published in PubChem BioAssay (NCI).
Values joined by “and” are separate entries in the source; they are usually repeats but may differ in a detail not shown here. Identical values can stand only once.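 96-well plates; 48 h exposure; 5 concentrations. Endpoints by linear interpolation between flanking doses. Not reached: highest tested concentration assigned. GI50 is the concentration that inhibits growth by half. Definition used: TGI = concentration required for complete inhibition of growth.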

Columns and labels:
Experiment in all cases: NCI tumour cell line growth inhibition, 48 h
[1] = system: A498 renal
[2] = system: K-562 leukemia
[3] = system: SN12C renal
[4] = system: NCI-H226 lung
[5] = system: SK-MEL-28 melanoma
[6] = system: SF-268 CNS
[7] = system: MDA-MB-231 breast
[8] = system: MDA-MB-435
[9] = system: CCRF-CEM leukemia
[10] = system: SNB-75 CNS

Row | SMILES | TGI [1] [µM] | TGI [2] | TGI [3] [µM] | TGI [4] [µM] | TGI [5] [µM] | TGI [6] [µM] | TGI [7] [µM] | TGI [8] [µM] | TGI [9] | TGI [10] [µM] | GI50 [1] [µM] | GI50 [3] [µM] | GI50 [5] [µM] | GI50 [10] [µM] | GI50 [7] [µM] | GI50 [8] [µM] | GI50 [9] [µM] | GI50 [2] [µM] | GI50 [4] [µM] | GI50 [6] [µM]
1 | COc1ccc2[nH]c3c([N+](=O)[O-])ccc(Cl)c3c(=O)c2c1 | > 100 | 13.2 µM | 55.1 | > 100 | 98.1 | 53.6 | 32.8 | > 55.8 | 10.2 µM | – | – | – | – | – | – | – | – | – | – | –
2 | O=Nc1ccc(O)c2ncccc12 | 42.4 | > 100 µM | 25.2 | 42.8 | 17.3 | 17.2 | 57.3 | 3.83 | > 100 µM | 8.48 | – | – | – | – | – | – | – | – | – | –
3 | CCN=C=NCCCN(C)C | > 100 | > 100 µM | > 100 | > 100 | > 100 | > 100 | > 100 | > 100 | > 100 µM | > 100 | – | – | – | – | – | – | – | – | – | –
4 | C/C1=N\NC(=O)c2ccccc2C(=O)N/N=C(\C)c2cccc1n2.O=[N+]([O-])[O-].[Zn+2] | > 100 | > 100 µM | > 100 | – | > 100 | > 100 | – | – | > 100 µM | > 100 | – | – | – | – | – | – | – | – | – | –
5 | N=C(N)c1ccc(-c2ccc(-c3cncc4ccccc34)s2)cc1F | 2.5 | – | 3.65 | – | 3.41 | – | 3.12 | 3.49 | – | 3.14 | 1.06 | 1.85 | 1.75 | 1.73 | 1.4 | 1.86 | – | – | – | –
6 | OC(Cc1ccccc1)(Cc1ccccc1)c1ccccc1 | 34.1 | > 100 µM | 32 | 34.2 | 47.3 | 29.8 | 33.8 | 33.4 | > 100 µM | – | – | – | – | – | – | – | – | – | – | –
7 | Nc1ccc(OCC(O)N2C(=O)c3ccccc3C2=O)cc1 (centres undefined) | – | > 100 µM | – | – | > 100 | > 100 | > 100 | > 100 | > 100 µM | – | – | – | – | – | – | – | – | – | – | –
8 | O=S(=O)(O)c1cc(N=Nc2cc(S(=O)(=O)O)c3ccccc3c2O)ccc1/C=C/c1ccc(N=Nc2cc(S(=O)(=O)O)c3ccccc3c2O)cc1S(=O)(=O)O | – | > 67.1 µM and 78.1 µM | > 1000 | 594 | > 1000 | > 1000 | 82.1 | 258 | 42.5 µM and 92.7 µM | > 736 | – | – | – | – | – | – | 32.5 | – | – | –
9 | COc1cc(C(C)(C)C)cc(OC)c1C(O)(c1c(OC)cc(C(C)(C)C)cc1OC)c1c(OC)cc(C(C)(C)C)cc1OC | 2.53 | – | – | – | – | – | – | 0.974 | – | – | 0.477 | – | – | – | – | 0.306 | – | – | – | –
10 | C=C(CN(C)C)C(=O)c1ccc(C)cc1C | 33.7 | 9.74 µM | 33.4 | 34.5 | 20.4 | 35.4 | 52.1 | 17.1 | 2.14 µM | 34.9 | – | – | – | – | – | – | – | – | – | –
11 | Cc1ccc(P(c2ccc(C)cc2)c2ccc(C)cc2)cc1 | 79.3 | > 100 µM | 34.3 | – | 56 | > 100 | 67.6 | 41.1 | 46.5 µM | 49.5 | – | – | – | – | – | – | – | – | – | –
12 | CC(C)(C)C1(c2ccc(C3(c4ccccc4)Oc4ccccc4S3)[nH]2)Oc2ccccc2S1 (centres undefined) | – | > 100 µM | > 100 | > 100 | – | > 100 | – | – | > 100 µM | – | – | – | – | – | – | – | – | – | – | –
13 | O=C(O)CC(C(=O)O)C1c2ccccc2-c2ccccc21 (centres undefined) | > 100 | > 100 µM | > 100 | > 100 | > 100 | > 100 | > 100 | > 100 | > 100 µM | – | – | – | – | – | – | – | – | – | – | –
14 | COC1/C=C\OC2(C)Oc3c(C)c(O)c4c(O)c(c(/C=N\OCCCc5ccccc5)c(O)c4c3C2=O)NC(=O)/C(C)=C\C=C/C(C)C(O)C(C)C(O)C(C)C(OC(C)=O)C1C (centres undefined) | 20.5 | 15.4 µM | 7.66 | 7.09 | 4.65 | 18.3 | 7.97 | 9.28 | 6.35 µM | 8.86 | – | – | – | – | – | – | – | – | – | –
15 | c1ccc(-n2cnnc2-c2nsc3ccccc23)cc1 | – | > 100 µM | > 100 | – | > 100 | > 100 | – | – | > 100 µM | > 100 | – | – | – | – | – | – | – | – | – | –
16 | Nc1cc(S(=O)(=O)O)cc2cc(S(=O)(=O)O)c(N=Nc3ccc(-c4ccc(N=Nc5c(S(=O)(=O)O)cc6cc(S(=O)(=O)O)cc(N)c6c5O)cc4)cc3)c(O)c12 | > 100 | > 100 µM | > 100 | > 100 | > 100 | > 100 | – | – | > 100 µM | > 100 | – | – | – | – | – | – | – | – | – | –
17 | O=[N+]([O-])c1ccc(/C=N\Nc2ccc([N+](=O)[O-])cn2)cc1 | – | > 100 µM | > 100 | > 100 | > 100 | > 100 | > 100 | > 100 | > 100 µM | > 100 | – | – | – | – | – | – | – | – | – | –
18 | C=C(C)[C@@H]1CC[C@]2(C(=O)Nc3ccccn3)CC[C@]3(C)[C@H](CC[C@@H]4[C@@]5(C)CCCNC(C)(C)[C@@H]5CC[C@]43C)[C@@H]12 | 7.96 | 4.78 µM | 2.92 | 33.4 | 3.13 | 4.79 | – | – | > 100 µM | 5.89 | 2.25 | 1.57 | 1.69 | 1.72 | – | – | 3.02 | 1.45 | 5.31 | 1.95
19 | CCN(CC)C(=S)SC(=S)N(CC)CC | > 100 | > 100 µM | > 100 | > 100 | > 100 | > 100 | > 92.1 | > 100 | – | 99.2 | – | – | – | – | – | – | – | – | – | –
20 | Nc1nc(N)c2ncn(-c3ccc(Cl)c(Cl)c3)c2n1 | 32.4 | – | 61.7 | > 100 | > 100 | > 100 | 77.7 | > 100 | 28.8 µM | – | – | – | – | – | – | – | – | – | – | –
21 | C=C(C)C(=O)OC1C(C(C)CCCO)=C(CO)CC2OC(=O)C(=C)C21 (centres undefined) | 36.5 | 49.4 µM | 32.8 | > 100 | 49.1 | 48.8 | 36 | 52.1 | > 100 µM | 40.5 | – | – | – | – | – | – | – | – | – | –
22 | C=C(C)C1CC2=C(O1)C(=O)c1ccccc1C2=O (centres undefined) | – | 42.1 µM | 43.5 | – | 34.2 | – | – | – | 52.7 µM | 31.8 | – | – | – | – | – | – | – | – | – | –
23 | COc1ccc(-c2nn(-c3ccc(NC(=O)Nc4ccc(Cl)c(Cl)c4)cc3)cc2-c2ccncc2)cc1Cl | 8.04 | > 100 µM | > 100 | > 100 | 68.2 | > 100 | 4.33 | > 100 | > 100 µM | > 100 | 1.75 | 2.6 | 2.7 | 1.17 | 1.5 | 2.3 | 2.09 | 1.43 | 3.49 | 4.19
24 | CC(C)=CCc1c(O)ccc2c1OC1c3ccc(O)c(CC=C(C)C)c3OCC21 (centres undefined) | 25 | 25.3 µM | 30.3 | 30.7 | 28.7 | 27 | – | – | 43 µM | 33.9 | – | – | – | – | – | – | – | – | – | –
